# US20240316051A1, “A PHARMACEUTICAL COMBINATION AND USE THEREOF” (Ascentage Pharma (Suzhou) Co., Ltd., priority 2021, published 2024)
# What was measured:
# [1] = tested on: NCI-H226 (BAP1mut, CDKN2Adel, FGFR high) xenograft; assay: NCI-H226 xenograft model (Examples 18-19); assay type: in vivo, mice; conditions: Compound 2-5 50 mg/kg, orally, once per day, 35 days
# Protocol: (§1) A subcutaneous xenograft tumor model of human tumor immunodeficient mice was established by cell inoculation: tumor cells in logarithmic growth phase were collected, counted, resuspended in 1×PBS, and the cell suspension concentration was adjusted to 2.5-5×10^7/mL. The tumor cells were inoculated subcutaneously in the right side of immunodeficient mice with a 1 ml syringe ([…]), 5-10×10^6/0.2 mL/mouse. All animal experiments were strictly in accordance with the specifications for the use and management of experimental animals in GenePharma Co., Ltd. and Suzhou Ascentage Pharma Co., Ltd. The calculation of relevant parameters refers to the Chinese NMPA “Guidelines for Non-Clinical Research Techniques of Cytotoxic Anti-tumor Drugs”.
# Animal body weight and tumor size were measured twice weekly during the experiment. The state of the animal and the presence or absence of death were observed every day. The growth of tumor and the effects of treatment on normal behavior of animals were monitored routinely, specifically involving experimental animal activity, feeding and drinking, weight gain or loss, eyes, clothing hair and other abnormalities. The deaths and clinical symptoms observed during the experiment were recorded in the raw data. […] The plasma and tumor samples were frozen at −80° C. for ready-to-use.
# (§2) Tumor volume (TV) is calculated as: TV=a×b^2/2, wherein a and b represent the length and width of the tumor to be measured, respectively.
# (§3) The relative tumor volume (RTV) is calculated as: RTV=Vt/V1, wherein V1 is the tumor volume at the start of grouping and administration, and Vt is the tumor volume measured on the t day after administration. […]
# Use of mRECIST (Gao et al., 2015) measured tumor responses included stable disease (SD), partial tumor regression (PR), and complete regression (CR), determined by comparing tumor volume change at day t to its baseline: tumor volume change (%)=(Vt−V1)/V1. […] For each time t, the average of tumor volume changes from t=1 to t was also calculated. […] Body weight of animals were monitored simultaneously. […]
# [2] = tested on: BAP1 mut mesothelioma PDX model; assay: BAP1 mut mesothelioma PDX model (Examples 15-17); assay type: in vivo, mice; conditions: Compound 2-5 50 mg/kg, orally, once per day, 28 days
# Protocol: as §1
# (§4) Animal body weight and tumor size were measured twice weekly during the experiment. The state of the animal and the presence or absence of death were observed every day. The growth of tumor and the effects of treatment on normal behavior of animals were monitored routinely, specifically involving experimental animal activity, feeding and drinking, weight gain or loss, eyes, clothing hair and other abnormalities. The deaths and clinical symptoms observed during the experiment were recorded in the raw data. All operations for administration and measurement of mouse body weight and tumor volume were performed in a clean bench. According to the requirements of the experimental protocol, after the end of the last administration, plasma and tumor tissues were collected, weighed and photographed. The plasma and tumor samples were frozen at −80° C. for ready-to-use.
# as §2
# (§5) The relative tumor volume (RTV) is calculated as: RTV=Vt/V1, wherein V1 is the tumor volume at the start of grouping and administration, and Vt is the tumor volume measured on the t day after administration.
# (§6) The evaluation index of anti-tumor activity is the relative tumor proliferation rate T/C (%), and the calculation formula thereof is: relative tumor proliferation rate T/C (%)=(TRTV/CRTV)×100%, TRTV is the RTV of treatment group, CRTV is the RTV of solvent control group.
# (§7) A dose of drug is considered to be severely toxic if the body weight of mouse is reduced by more than 20% or the number of drug-related deaths exceeds 20%.
# (§8) According to the description by Clarke R., Issues in experimental design and endpoint analysis in the study of experimental cytotoxic agents in vivo in breast cancer and other models [J]. Breast Cancer Research & Treatment, 1997, 46(2-3): 255-278, synergy analysis was evaluated using the following formula: synergy factor=((A/C)×(B/C))/(AB/C); A=RTV value of drug A alone group; B=RTV value of drug B alone group; C=RTV value of the solvent control group, and AB=RTV value of the A and B combination group.
# In this experiment, a BAP1 mut mesothelioma PDX model (Lide Biotech) was established to evaluate the anti-tumor effect of Compound 73. The dosing regimen was as follows: • Compound 73: 50 mg/kg, orally, once per day, for a total of 28 days; • Compound 73: 100 mg/kg, orally, once per day, for a total of 28 days;
# In this experiment, a BAP1 mut mesothelioma PDX model (Lide Biotech) was established to evaluate the anti-tumor effect of Compound 73 in combination with Compound A-1. […]
# [3] = tested on: human B cell lymphoma cell KARPAS422; assay: Cell proliferation (WST-8), KARPAS422, 7 days; assay type: cell-based; conditions: KARPAS-422, 168 h, WST-8, Table 4A, read-out: Karpas Cell line
# Protocol: (§9) Analysis of Cell Proliferation:
# (§10) To assess the effect of PRC2 inhibition on cell growth, cells were seeded in 96-well cell culture plates at a density of 2 000-3 000 cells/well in 200 μL of culture medium, and treated with serially diluted compounds for 7 days at 37° C. in an atmosphere of 5% CO2. Cell growth was evaluated by a […] WST-8 assay (Dojindo Molecular Technologies) using a Tecan Infinite M1000 multimode microplate reader (Tecan, Morrisville, NC). The WST-8 reagent was added to the plate, incubated for 1-4 h, and read at 450 nm. The readings were normalized to the DMSO-treated cells, and the IC50 was calculated by nonlinear regression analysis using GraphPad Prism 6 software
# [4] = tested on: Pfeiffer Cell line; assay: Cell proliferation, Pfeiffer cell line; assay type: cell-based; conditions: Homo sapiens, anti-proliferative IC50, Table 4A
# Protocol: as §9, §10
# [5] = molecular target: T1, EED (1-441)-His protein (Homo sapiens, UniProt O75530); assay: EED-H3K27Me3 peptide competition binding assay by AlphaScreen; conditions: Table 4A, read-out: Alpha screen
# T1 construct: 20 nM EED (1-441)-His protein
# T1 sequence (O75530 whole entry): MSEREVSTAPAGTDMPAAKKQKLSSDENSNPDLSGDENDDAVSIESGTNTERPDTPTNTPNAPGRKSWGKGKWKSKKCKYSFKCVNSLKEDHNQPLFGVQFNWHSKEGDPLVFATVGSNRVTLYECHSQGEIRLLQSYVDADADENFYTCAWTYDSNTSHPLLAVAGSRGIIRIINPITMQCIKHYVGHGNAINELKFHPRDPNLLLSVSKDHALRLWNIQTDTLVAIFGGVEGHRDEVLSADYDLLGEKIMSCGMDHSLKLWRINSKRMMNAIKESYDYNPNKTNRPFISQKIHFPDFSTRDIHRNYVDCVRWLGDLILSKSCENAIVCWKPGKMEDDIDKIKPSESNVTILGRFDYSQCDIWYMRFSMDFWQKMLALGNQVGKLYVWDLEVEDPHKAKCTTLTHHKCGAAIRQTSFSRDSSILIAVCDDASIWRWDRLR
# Method in brief: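 Readout was AlphaScreen emission at 615 nm after 680 nm excitation, with 10 μg/ml final each of streptavidin donor and nickel chelate acceptor beads, 1 h at RT in the dark. Beforehand, compound met the His-tagged EED(1-441) for 15 min and then biotinylated H3K27Me3(19-33) peptide for 30 min; both were added as 20 nM solutions, buffer 25 mM HEPES pH 8, Tween-20, BSA. Percent activity left was fitted to give IC50.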
# [6] = tested on: BAP1 mut mesothelioma PDX model; assay: Subcutaneous BAP1 mut mesothelioma PDX model (Example 21); assay type: in vivo, mice; conditions: Compound 73 100 mg/kg orally once per day, Compound C 50 mg/kg orally every other day, 36 days; alone or combined
# Protocol: as §1, §4, §2, §5, §6
# (§11) Change of body weight (%)=(measured body weight-body weight at the start of grouping)/body weight at the start of grouping×100%.
# as §7
# In this experiment, subcutaneous BAP1 mut mesothelioma PDX model was established (Lide Biotech) to evaluate the anti-tumor effect of Compound 73 in combination with Compound C. […]
# [7] = tested on: malignant pleural mesothelioma (MPM) PDX model (FGFR1high; BAP1mut); assay: Subcutaneous malignant pleural mesothelioma (MPM) PDX model (Example 20); assay type: in vivo, mice; conditions: Compound 73 100 mg/kg, Compound C 50 mg/kg, each orally every other day, 76 days; alone or combined
# Protocol: as §1, §4, §2, §3
# Change of body weight (%)=(measured body weight-body weight at the start of grouping)/body weight at the start of grouping×100%. […]
# as §8, with “group. […]” for “group.”
# [8] = tested on: NCI-H28(X1) (BAP1mut, UHRF1high, TP53WT, CDKN2Adel, FGFRlow, NF2WT) subcutaneous mesothelioma xenograft; assay: NCI-H28(X1) subcutaneous mesothelioma xenograft model (Example 23); assay type: in vivo, mice; conditions: Compound C 50 mg/kg orally every other day, Compound 73 100 mg/kg orally once per day, 28 days, alone or combined
# Protocol: as §1, §4, §2, §5
# The evaluation index of anti-tumor activity is the relative tumor proliferation rate T/C (%), and the calculation formula thereof is: relative tumor proliferation rate T/C (%)=(TRTV/CRTV)×100%, TRTV is the RTV of treatment group, CRTV is the RTV of solvent control group. […]
# as §8, with “group. […]” for “group.”
# [9] = tested on: LnCap prostate xenograft; assay: Subcutaneous LnCap prostate xenograft model (Example 25); assay type: in vivo, mice; conditions: day 17
# Protocol: as §1, §4, §2, §5, §6, §7, §8
# (§12) In this experiment, subcutaneous LnCap prostate xenograft model was established to evaluate the anti-tumor effect of Compound 73 in combination with Compound C. The dosing regimen was as follows: • Compound C: 100 mg/kg, orally, every other day, for day 1-day 9; 50 mg/kg, orally, every other day, for day 10-day 28; • Compound 73: 100 mg/kg, orally, once per day, for a total of 28 days;
# (§13) The dosing regimen of each drug in the dosing regimen for the combination is the same as the dosing regimen for the single drug, for a total of 28 days.
# [10] = tested on: 22RV1 prostate xenograft; assay: Subcutaneous 22RV1 prostate xenograft model (Example 24); assay type: in vivo, mice
# Protocol: as §1, §4, §2, §5, §6, §11, §7, §8
# as §12, with “22RV1” for “LnCap”, “a total of 28 days;” for “day 1-day 9; 50 mg/kg, orally, every other day, for day 10-day 28;”
# as §13
# [11] = tested on: H226 (BAP1mut, UHRF1high, TP53WT, CDKN2Adel, FGFRhigh) subcutaneous mesothelioma xenograft; assay: H226 subcutaneous mesothelioma xenograft model (Example 22); assay type: in vivo, mice
# Protocol: as §1, §4, §2, §5, §6, §11, §7
# In this experiment, H226 (BAP1mut, UHRF1high, TP53WT, CDKN2Adel, FGFRhigh) subcutaneous mesothelioma xenograft model was established to evaluate the anti-tumor effect of Compound 73 in combination with Compound C. The dosing regimen was as follows: • Compound C: 50 mg/kg, orally, every other day, for a total of 39 days; • Compound 73: 50 mg/kg, orally, once per day, for a total of 39 days; • Compound 73: 100 mg/kg, orally, once per day, for a total of 39 days.
structure (smiles),measurement,setting,value
"Cc1cc(Nc2ncc(Cl)c(Nc3ccccc3S(=O)(=O)C(C)C)n2)c(OC(C)C)cc1C1=CCN(C2CCOCC2)CC1 [Compound 2-5, 5-chloro-N^2-(2-isopropoxy-5-methyl-4-(1-(tetrahydro-2H-pyran-4-yl)-1,2,3,6-tetrahydropyridin-4-yl)phenyl)-N^4-(2-(isopropylsulfonyl)phenyl)pyrimidine-2,4-diamine]",inhibition of tumor growth (in words),[1],almost not effective in inhibiting tumor growth
same,inhibition of tumor growth (in words),[2],not effective in inhibiting tumor growth
"O=C1c2ncn3c(NCc4c(F)ccc5c4CCO5)ncc(c23)-c2sccc2CN1C1CC1 [Compound 87, 4-cyclopropyl-11-(((5-fluoro-2,3-dihydrobenzofuran-4-yl)methyl)amino)-4,5-dihydro-3H-8-thia-2,4, 10,11a-tetraazacyclopenta[4,5]cycloocta[1,2,3-cd] inden-3-one]",IC50,[3],8.67 nM
same,IC50,[4],0.018 nM
same,IC50,[5],11.1 nM
CCN1[C@@H](C(=O)NC23CCC(C(=O)O)(CC2)CC3)[C@H](c2cccc(Cl)c2F)[C@]2(C(=O)Nc3cc(Cl)ccc32)C12CCCCC2 [Compound C],RTV @ D 36,[6],8.04
same,T/C (%) @ D 36,[6],55.17%
same,RTV @ D 76,[7],3.47
same,T/C (%) @ D 76,[7],60%
same,T/C (%) @ D 29,[8],92.16%
same,RTV@ D 29,[8]; mean ± SEM,14.06 ± 1.22
same,RTV@ D 17,"[9]; LnCap xenograft, Compound 73 100 mg/kg orally once per day, Compound C 100 mg/kg/50 mg/kg orally every other day",2.57 ± 0.24
same,T/C(%) @ D 17,"[9]; LnCap xenograft, Compound 73 100 mg/kg, Compound C 100 mg/kg/50 mg/kg",57.46%
same,T/C value,"[9]; Compound C 100 mg/kg every other day day 1-9 then 50 mg/kg day 10-28, Compound 73 100 mg/kg once per day, orally, alone or combined",57.46%
same,RTV@ D 26,"[10]; 22RV1 xenograft, day 26, Compound 73 100 mg/kg orally once per day, Compound C 50 mg/kg (table) orally every other day",14.81 ± 4.35
same,T/C(%) @ D 26,"[10]; 22RV1 xenograft, day 26, Compound 73 100 mg/kg, Compound C 50 mg/kg (table)",93.39%
same,RTV@ D 29,"[10]; 22RV1 xenograft, day 29",18.54 ± 7.96
same,T/C value,"[10]; day 26, Compound C 100 mg/kg orally every other day, Compound 73 100 mg/kg orally once per day, alone or combined",93.39%
same,T/C (%) @ D 39,"[11]; Compound C 50 mg/kg orally every other day, Compound 73 50 mg/kg orally once per day, alone or combined",49.45%
same,RTV @ D 39,"[11]; Compound C 50 mg/kg orally every other day, Compound 73 50 mg/kg orally once per day, alone or combined, mean ± SEM",3.94 ± 0.69
same,antitumor activity (in words),"[11]; single agents, 39 days (FIG. 10)",moderate antitumor activity
